Measured values as given in patent US4283328A, “Preparation of dehydropeptides” (Research Corporation, priority 1979, dated 1981).
*1 amine or outer side, *2 acyl side, *3 side chain or, on linkers, in order; H or OH if unused. Where a SMILES comes first, the peptide text is derived from it. [ ]: non-standard residue; d: D form. The star is where a group is joined. X1 = O=C(C(=Cc1ccccc1)N[*:1])[*:2]; Cbz = O=C(OCc1ccccc1)*

What was measured:
[1] = Enzymolysis with chymotrypsin (stability to enzymatic hydrolysis); format: in vitro ADME; conditions: chymotrypsin; 2 hours at 37°, tris buffer pH 8; ninhydrin color; read-out: hydrolysis by α-chymotrypsin
Description: (§1) One purpose in introducing unsaturation into a peptide chain is to increase the binding of the peptides to active sites and protect the peptide from enzymatic cleavage, e.g. hydrolysis, in the bloodstream, thus enhancing activity. One method of measuring the stability of peptides to enzymatic hydrolysis is to treat the peptides with chymotrypsin which is specific for phenyl bonds.
(§2) A solution of 46 mg of N-Carbobenzoxy-L-prolyl-dehydrophenylalanyl-L-phenylalanine in 4 ml of methanol/water (1:1) was diluted to 10 ml with a 0.05 N tris buffer solution (pH 8) containing 0.46 mg of α-chymotrypsin. After standing 2 hours at 37° in a constant temperature bath, a 0.5 ml sample was treated with 0.5 ml of a 1.25% acetone solution of ninhydrin.

renin = assay: Renin inhibition; format: biochemical
[2] = tested on: angiotensin I converting enzyme; assay: Inhibition of angiotensin I converting enzyme; format: biochemical
α-chymotrypsin = assay: Enzymolysis with chymotrypsin (stability to enzymatic hydrolysis); format: in vitro ADME
Description: as §1, §2

guinea pig ileum = assay: Guinea pig ileum contraction assay
From the text: This analog can also be made by solid phase protein synthesis.

blood pressure = assay: Guinea pig blood pressure test; format: in vivo; conditions: relative to BDK = 100%

O=C(O)[C@H](Cc1ccccc1)NC(=O)[C@H](Cc1ccccc1)NC(=O)[C@@H]1CCCN1C(=O)OCc1ccccc1 [ZPro-Phe-Phe.OH, reference compound] (Cbz-Pro-Phe-Phe-OH)
metabolised at 2 h [1]: 5%

COC(=O)[C@H](Cc1ccccc1)NC(=O)[C@@H](NC(=O)C(=Cc1ccccc1)NC(=O)[C@@H](N)CC(C)C)C(C)C [leudehydrophe-val-phe.OMe, Leucyl-dehydrophenylalanyl-valyl-phenylalanine methyl ester]
inhibition of renin (renin): inhibits renin

CC(C)C[C@H](NC(=O)[C@H](Cc1c[nH]cn1)NC(=O)C(=Cc1ccccc1)NC(=O)[C@@H]1CCCN1)C(=O)O [tetrapeptide freed of the blocking group, H.Pro-ΔPhe-His-Leu.OH.2HBr]
inhibition of angiotensin I converting enzyme [2]: inactive

O=C(N[C@@H](Cc1ccccc1)C(=O)O)C(=Cc1ccccc1)NC(=O)[C@@H]1CCCN1C(=O)OCc1ccccc1 [N-Carbobenzoxy-L-prolyl-dehydrophenylalanyl-L-phenylalanine]
ninhydrin color formed after α-chymotrypsin treatment (α-chymotrypsin; 2 hours at 37°, tris buffer pH 8, methanol/water, compared with blank solution): matched that of a blank solution
stability to chymotrypsin (α-chymotrypsin; treatment with chymotrypsin): stable to chymotrypsin

Tyr-DAla-Gly-ΔPhe-Met-NH2 Acetate
activity in the guinea pig ileum contraction assay (guinea pig ileum): active

N=C(N)NCCC[C@H](NC(=O)[C@H](Cc1ccccc1)NC(=O)[C@@H]1CCCN1C(=O)[C@H](CO)NC(=O)C(=Cc1ccccc1)NC(=O)CNC(=O)[C@@H]1CCCN1C(=O)[C@@H]1CCCN1C(=O)[C@@H](N)CCCNC(=N)N)C(=O)O [dehydro BDK, Arginyl-prolyl-prolyl-glycyl-dehydrophenylalanylseryl-prolyl-phenylalanyl-arginine] (H-RPPG[X1]SPFR-OH)
increase in contraction, BDK as the standard at 100% (guinea pig ileum; guinea pig ileum, relative to BDK = 100%): 247.6%
reduction of blood pressure, BDK as the standard at 100% (blood pressure; given intra-arterially): 277.7%
decrease of blood pressure, BDK as the standard at 100% (blood pressure; given intravenously): 6250%

CC(C)C[C@H](NC(=O)[C@H](Cc1c[nH]cn1)NC(=O)C(=Cc1ccccc1)NC(=O)[C@@H]1CCCN1C(=O)OCc1ccccc1)C(=O)O [Z-Pro-ΔPhe-His-Leu.OH]
inhibition of angiotensin I converting enzyme [2]: inhibit angiotensin I converting enzyme
